# Measurements taken from article PMC10006169, “A phase I trial of LXS196, a protein kinase C (PKC) inhibitor, for metastatic uveal melanoma” (British Journal of Cancer, 2023).
# Test system: patients with MUM
# Test: Adverse events regardless of study drug relationship
# Format: in vivo, human
# Experimental: Routine safety assessments, including laboratory assessments, physical examinations, vital signs and electrocardiograms (ECGs), were conducted at regular intervals throughout the study and more frequently as needed following patient assessment by the treating physician. Adverse events (AEs) were assessed continuously according to the National Cancer Institute Common Terminology Criteria for Adverse Events (NCI-CTCAE) v4.03.
smiles,measurement,setting,value
CC1(N)CCN(c2cccnc2NC(=O)c2nc(-c3ncccc3C(F)(F)F)cnc2N)CC1 [LXS196],"ALT increased, all grades",300 mg BID (RDE),5 (27.8) n (%)
same,"ALT increased, grade ≥3",300 mg BID (RDE),1 (5.6) n (%)
same,"AST increased, all grades",300 mg BID (RDE),4 (22.2) n (%)
same,"AST increased, grade ≥3",300 mg BID (RDE),2 (11.1) n (%)
same,"Abdominal pain upper, all grades",300 mg BID (RDE),3 (16.7) n (%)
same,"Abdominal pain upper, grade ≥3",300 mg BID (RDE),0 n (%)
same,"Asthenia, all grades",300 mg BID (RDE),4 (22.2) n (%)
same,"Asthenia, grade ≥3",300 mg BID (RDE),0 n (%)
same,"Blood creatinine increased, all grades",300 mg BID (RDE),2 (11.1) n (%)
same,"Blood creatinine increased, grade ≥3",300 mg BID (RDE),0 n (%)
same,"Constipation, all grades",300 mg BID (RDE),4 (22.2) n (%)
same,"Constipation, grade ≥3",300 mg BID (RDE),0 n (%)
same,"Decreased appetite, all grades",300 mg BID (RDE),2 (11.1) n (%)
same,"Decreased appetite, grade ≥3",300 mg BID (RDE),0 n (%)
same,"Dermatitis acneiform, all grades",300 mg BID (RDE),3 (16.7) n (%)
same,"Dermatitis acneiform, grade ≥3",300 mg BID (RDE),0 n (%)
same,"Diarrhoea, all grades",300 mg BID (RDE),11 (61.1) n (%)
same,"Diarrhoea, grade ≥3",300 mg BID (RDE),1 (5.6) n (%)
same,"Dry skin, all grades",300 mg BID (RDE),4 (22.2) n (%)
same,"Dry skin, grade ≥3",300 mg BID (RDE),0 n (%)
same,"Fatigue, all grades",300 mg BID (RDE),6 (33.3) n (%)
same,"Fatigue, grade ≥3",300 mg BID (RDE),0 n (%)
same,"Hypotension, all grades",300 mg BID (RDE),3 (16.7) n (%)
same,"Hypotension, grade ≥3",300 mg BID (RDE),0 n (%)
same,"Nasopharyngitis, all grades",300 mg BID (RDE),2 (11.1) n (%)
same,"Nasopharyngitis, grade ≥3",300 mg BID (RDE),0 n (%)
same,"Nausea, all grades",300 mg BID (RDE),15 (83.3) n (%)
same,"Nausea, grade ≥3",300 mg BID (RDE),0 n (%)
same,"Neutropenia, all grades",300 mg BID (RDE),0 n (%)
same,"Neutropenia, grade ≥3",300 mg BID (RDE),0 n (%)
same,"Oedema peripheral, all grades",300 mg BID (RDE),5 (27.8) n (%)
same,"Oedema peripheral, grade ≥3",300 mg BID (RDE),1 (5.6) n (%)
same,"Patients with ≥1 AE, all grades",300 mg BID (RDE),18 (100) n (%)
same,"Patients with ≥1 AE, grade ≥3",300 mg BID (RDE),8 (44.4) n (%)
same,"Rash, all grades",300 mg BID (RDE),5 (27.8) n (%)
same,"Rash, grade ≥3",300 mg BID (RDE),0 n (%)
same,"Vomiting, all grades",300 mg BID (RDE),8 (44.4) n (%)
same,"Vomiting, grade ≥3",300 mg BID (RDE),0 n (%)
same,"ALT increased, all grades",300 mg QD,4 (26.7) n (%)
same,"ALT increased, grade ≥3",300 mg QD,1 (6.7) n (%)
same,"AST increased, all grades",300 mg QD,1 (6.7) n (%)
same,"AST increased, grade ≥3",300 mg QD,1 (6.7) n (%)
same,"Abdominal pain upper, all grades",300 mg QD,2 (13.3) n (%)
same,"Abdominal pain upper, grade ≥3",300 mg QD,0 n (%)
same,"Asthenia, all grades",300 mg QD,3 (20.0) n (%)
same,"Asthenia, grade ≥3",300 mg QD,0 n (%)
same,"Blood creatinine increased, all grades",300 mg QD,2 (13.3) n (%)
same,"Blood creatinine increased, grade ≥3",300 mg QD,0 n (%)
same,"Constipation, all grades",300 mg QD,4 (26.7) n (%)
same,"Constipation, grade ≥3",300 mg QD,0 n (%)
same,"Decreased appetite, all grades",300 mg QD,0 n (%)
same,"Decreased appetite, grade ≥3",300 mg QD,0 n (%)
same,"Dermatitis acneiform, all grades",300 mg QD,1 (6.7) n (%)
same,"Dermatitis acneiform, grade ≥3",300 mg QD,0 n (%)
same,"Diarrhoea, all grades",300 mg QD,6 (40.0) n (%)
same,"Diarrhoea, grade ≥3",300 mg QD,0 n (%)
same,"Dry skin, all grades",300 mg QD,1 (6.7) n (%)
same,"Dry skin, grade ≥3",300 mg QD,0 n (%)
same,"Fatigue, all grades",300 mg QD,8 (53.3) n (%)
same,"Fatigue, grade ≥3",300 mg QD,0 n (%)
same,"Hypotension, all grades",300 mg QD,1 (6.7) n (%)
same,"Hypotension, grade ≥3",300 mg QD,0 n (%)
same,"Nasopharyngitis, all grades",300 mg QD,3 (20.0) n (%)
same,"Nasopharyngitis, grade ≥3",300 mg QD,0 n (%)
same,"Nausea, all grades",300 mg QD,10 (66.7) n (%)
same,"Nausea, grade ≥3",300 mg QD,0 n (%)
same,"Neutropenia, all grades",300 mg QD,3 (20.0) n (%)
same,"Neutropenia, grade ≥3",300 mg QD,1 (6.7) n (%)
same,"Oedema peripheral, all grades",300 mg QD,2 (13.3) n (%)
same,"Oedema peripheral, grade ≥3",300 mg QD,0 n (%)
same,"Patients with ≥1 AE, all grades",300 mg QD,14 (93.3) n (%)
same,"Patients with ≥1 AE, grade ≥3",300 mg QD,4 (26.7) n (%)
same,"Rash, all grades",300 mg QD,4 (26.7) n (%)
same,"Rash, grade ≥3",300 mg QD,0 n (%)
same,"Vomiting, all grades",300 mg QD,6 (40.0) n (%)
same,"Vomiting, grade ≥3",300 mg QD,0 n (%)
same,"ALT increased, all grades",400 mg BID,3 (50.0) n (%)
same,"ALT increased, grade ≥3",400 mg BID,1 (16.7) n (%)
same,"AST increased, all grades",400 mg BID,3 (50.0) n (%)
same,"AST increased, grade ≥3",400 mg BID,1 (16.7) n (%)
same,"Abdominal pain upper, all grades",400 mg BID,0 n (%)
same,"Abdominal pain upper, grade ≥3",400 mg BID,0 n (%)
same,"Asthenia, all grades",400 mg BID,2 (33.3) n (%)
same,"Asthenia, grade ≥3",400 mg BID,0 n (%)
same,"Blood creatinine increased, all grades",400 mg BID,0 n (%)
same,"Blood creatinine increased, grade ≥3",400 mg BID,0 n (%)
same,"Constipation, all grades",400 mg BID,2 (33.3) n (%)
same,"Constipation, grade ≥3",400 mg BID,0 n (%)
same,"Decreased appetite, all grades",400 mg BID,2 (33.3) n (%)
same,"Decreased appetite, grade ≥3",400 mg BID,0 n (%)
same,"Dermatitis acneiform, all grades",400 mg BID,1 (16.7) n (%)
same,"Dermatitis acneiform, grade ≥3",400 mg BID,0 n (%)
same,"Diarrhoea, all grades",400 mg BID,3 (50.0) n (%)
same,"Diarrhoea, grade ≥3",400 mg BID,0 n (%)
same,"Dry skin, all grades",400 mg BID,1 (16.7) n (%)
same,"Dry skin, grade ≥3",400 mg BID,0 n (%)
same,"Fatigue, all grades",400 mg BID,1 (16.7) n (%)
same,"Fatigue, grade ≥3",400 mg BID,0 n (%)
same,"Hypotension, all grades",400 mg BID,4 (66.7) n (%)
same,"Hypotension, grade ≥3",400 mg BID,1 (16.7) n (%)
same,"Nasopharyngitis, all grades",400 mg BID,0 n (%)
same,"Nasopharyngitis, grade ≥3",400 mg BID,0 n (%)
same,"Nausea, all grades",400 mg BID,3 (50.0) n (%)
same,"Nausea, grade ≥3",400 mg BID,0 n (%)
same,"Neutropenia, all grades",400 mg BID,1 (16.7) n (%)
same,"Neutropenia, grade ≥3",400 mg BID,0 n (%)
same,"Oedema peripheral, all grades",400 mg BID,1 (16.7) n (%)
same,"Oedema peripheral, grade ≥3",400 mg BID,0 n (%)
same,"Patients with ≥1 AE, all grades",400 mg BID,6 (100) n (%)
same,"Patients with ≥1 AE, grade ≥3",400 mg BID,4 (66.7) n (%)
same,"Rash, all grades",400 mg BID,1 (16.7) n (%)
same,"Rash, grade ≥3",400 mg BID,0 n (%)
same,"Vomiting, all grades",400 mg BID,3 (50.0) n (%)
same,"Vomiting, grade ≥3",400 mg BID,0 n (%)
